This is an account of results in patent publication US8202856B2 (Merck Serono SA, priority 2007, dated 2012).

As a reminder, the EC50 is the concentration giving half of the maximal effect. The low end stands for greater potency, the high end for weaker potency.

The target of one experiment is S1P1 receptor (Homo sapiens, UniProt P21453). Nature of the experiment: 35S-GTPγS binding, membranes from CHO cells expressing S1P1. The class given is biochemical. The settings on record: CHO cell membranes expressing S1P1. The method in brief: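 Membranes (1–10 μg) from CHO cells expressing the receptor were incubated with compound in 20 mM HEPES pH 7.4, 10 mM MgCl2, 140 mM NaCl, 1.7 μM GDP, saponin and 0.2% BSA. [35S]GTPγS (added at 1.5 nM) was then bound for 60 min at 30 °C. Membrane-bound radioactivity, averaged over triplicates, is expressed relative to S1P activation (n=2).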
(In general: GTPγS resists hydrolysis and so accumulates on activated G proteins.)

A further experiment has as its target S1P3 receptor (Homo sapiens, UniProt Q99500). Briefly: 35S-GTPγS binding, membranes from CHO cells expressing S1P3. The class given is biochemical. The settings on record: CHO cell membranes expressing S1P3. The protocol: Receptor binding assay: Membranes were prepared from CHO cells expressing S1P1 or S1P3 for use in ligand and 35S-GTPTS binding studies. Cells were suspended in 50 mM TRIS, pH 7.4, 2 mM EDTA, 250 mM Sucrose (buffer A) and 1× Complete protease inhibitor cocktail (Roche), and disrupted at 4° C. by nitrogen decompression using a cell disruption bomb (Parr Instrument). Following centrifugation at 1000 RPM for 10 min at 4° C., the supernatant was suspended in buffer A and centrifuged again at 19000 RPM for 60 min at 4° C. The pellet was then suspended in 10 mM HEPES, pH 7.4, 1 mM EDTA, 250 mM Sucrose (Buffer B), and 1× Complete EDTA-free protease inhibitor cocktail and homogenized using a potter. Membranes were flash frozen in liquid nitrogen and stored at −80° C. [33P]sphingosine 1-phosphate (3000 Ci/mmol; American Radiolabeled Chemicals, Inc.) was added to test compounds in DMSO. Membranes and WGA SPA beads (GE Healthcare) were added to give a final volume of 100 μl in 96-well plates with assay concentrations of […] [33P]sphingosine 1-phosphate (respectively for S1P1 or S1P3), 50 mM HEPES, pH 7.5, 5 mM MgCl2, 100 mM NaCl, 0.4% fatty acid-free BSA, 1-5 μg/well of proteins and 100 μg/well of WGA SPA beads. Binding was performed for 60 min at room temperature on a shaker and bound radioactivity was measured on a PerkinElmer 1450 MicroBeta counter. Specific binding was calculated by subtracting remaining radioactivity in the presence of 1000-fold excess of unlabeled S1P. Binding data were analyzed using the GraphPad Prism program.
Measurements of ^35S-GTPγS Binding: Membranes (1 to 10 μg protein) prepared as described above, were incubated in 96-well Scintiplates (PerkinElmer) with test compounds diluted in DMSO, in 180 μl of 20 mM HEPES, pH 7.4, 10 mM MgCl2, 2 μg/well Saponin, 0.2% fatty acid free BSA (Assay buffer), 140 mM NaCl and 1.7 μM GDP. The assay was initiated with the addition of 20 μl of 1.5 nM [35S]-GTPγS (1100 Ci/mmol; GE Healthcare) in assay buffer. After 60 min incubation at 30° C. on a shaker, plates were centrifuged for 10 min at 2000 RPM. Supernatant was discarded and membrane bound radioactivity was measured on a PerkinElmer 1450 MicroBeta counter. Triplicate samples were averaged and expressed as response relative to S1P activation in absence of compound (n=2).

Chain of S1P1 receptor (P21453 whole entry): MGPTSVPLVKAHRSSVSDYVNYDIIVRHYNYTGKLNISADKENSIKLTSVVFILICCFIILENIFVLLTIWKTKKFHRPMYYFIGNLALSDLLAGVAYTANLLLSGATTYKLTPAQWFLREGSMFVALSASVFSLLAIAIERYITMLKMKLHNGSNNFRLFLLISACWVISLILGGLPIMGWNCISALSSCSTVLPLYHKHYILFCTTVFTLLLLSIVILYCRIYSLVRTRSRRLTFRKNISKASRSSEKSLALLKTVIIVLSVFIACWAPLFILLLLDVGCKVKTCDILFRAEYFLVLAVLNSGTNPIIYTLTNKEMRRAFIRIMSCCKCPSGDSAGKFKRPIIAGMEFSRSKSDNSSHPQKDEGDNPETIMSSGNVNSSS
Chain of S1P3 receptor (Q99500 whole entry): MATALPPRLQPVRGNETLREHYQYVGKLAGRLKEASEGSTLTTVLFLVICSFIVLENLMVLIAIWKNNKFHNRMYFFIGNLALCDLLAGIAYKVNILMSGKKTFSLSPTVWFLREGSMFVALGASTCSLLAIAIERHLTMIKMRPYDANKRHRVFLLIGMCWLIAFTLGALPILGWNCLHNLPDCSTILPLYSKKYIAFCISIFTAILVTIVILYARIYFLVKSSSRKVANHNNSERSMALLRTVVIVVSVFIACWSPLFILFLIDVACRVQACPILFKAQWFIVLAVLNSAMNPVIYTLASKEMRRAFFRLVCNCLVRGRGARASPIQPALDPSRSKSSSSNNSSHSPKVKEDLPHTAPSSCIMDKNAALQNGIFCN

On to `Cc1c(-c2nc(-c3ccccc3)no2)nnn1-c1ccccc1F` [Example 34, 5-[1-(2-fluorophenyl)-5-methyl-1H-1,2,3-triazol-4-yl]-3-phenyl-1,2,4-oxadiazole], for which the EC50 is 1100 nM at S1P1 receptor and greater than 30000 nM at S1P3 receptor.

`Fc1ccccc1-n1nnc(-c2nc(-c3cccc(C(F)(F)F)c3)no2)c1-c1ccccc1` [Example 21, 5-[1-(2-Fluorophenyl)-5-phenyl-1H-1,2,3-triazole-4-yl]-3-[3-(trifluoromethyl)phenyl]-1,2,4-oxadiazole]: the concentration for a half-maximal effect (EC50) on S1P1 receptor was 41 nM; on S1P3 receptor, greater than 30000 nM.

For the molecule `COCc1c(-c2nc(-c3ccc4[nH]ncc4c3)no2)nnn1-c1ccccc1F` [Example 87, 5-{5-[1-(2-fluorophenyl)-5-(methoxymethyl)-1H-1,2,3-triazol-4-yl]-1,2,4-oxadiazol-3-yl}-1H-indazole], the figures for the EC50 on S1P1 receptor and at S1P3 receptor were 98 nM and greater than 20000 nM, respectively.

In the case of `Fc1ccccc1-n1nnc(-c2nc(-c3ccccc3)no2)c1-c1ccccc1` [Example 14, 5-[1-(2-Fluorophenyl)-5-phenyl-1H-1,2,3-triazole-4-yl]-3-phenyl-1,2,4-oxadiazole], the EC50 at S1P1 receptor was found to be 38 nM; at S1P3 receptor it was 399 nM.

As for `O=C(O)C1CCN(Cc2ccc(-c3noc(-c4nnn(-c5ccccc5F)c4-c4ccncc4)n3)cc2)CC1` [Example 128, 1-(4-{5-[1-(2-fluorophenyl)-5-pyridin-4-yl-1H-1,2,3-triazol-4-yl]-1,2,4-oxadiazol-3-yl}benzyl)piperidine-4-carboxylic acid], the 50% effective concentration (EC50) at S1P1 receptor is 8 nM; at S1P3 receptor it was 2530 nM.

For `COc1cccc(-c2noc(-c3nnn(-c4ccccc4F)c3-c3ccncc3)n2)c1` [Example 51, 4-{1-(2-fluorophenyl)-4-[3-(3-methoxyphenyl)-1,2,4-oxadiazol-5-yl]-1H-1,2,3-triazol-5-yl}pyridine], the results for the EC50 on S1P1 receptor and on S1P3 receptor were 10 nM and 741 nM, respectively.

As for `Fc1ccc(-c2noc(-c3nnn(-c4ccccc4F)c3-c3ccccc3)n2)c(F)c1` [Example 11, 3-(2,4-Difluorophenyl)-5-[1-(2-fluorophenyl)-5-phenyl-1H-1,2,3-triazole-4-yl]-1,2,4-oxadiazole], the EC50 was 53 nM on S1P1 receptor and greater than 30000 nM at S1P3 receptor.

`Fc1ccccc1-c1noc(-c2nnn(-c3ccccc3F)c2-c2cccnc2)n1` [Example 25, 3-{1-(2-Fluorophenyl)-4-[3-(2-fluorophenyl)-1,2,4-oxadiazole-5-yl]-1H-1,2,3-triazole-5-yl}pyridine]: the EC50 on S1P1 receptor was 272 nM; at S1P3 receptor it was greater than 20000 nM.

On to `Fc1cccc(-c2noc(-c3nnn(-c4ccccc4F)c3-c3ccncc3)n2)c1` [Example 83, 4-{1-(2-fluorophenyl)-4-[3-(3-fluorophenyl)-1,2,4-oxadiazol-5-yl]-1H-1,2,3-triazol-5-yl}pyridine], for which the values for the half-maximal effective concentration (EC50) at S1P1 receptor and at S1P3 receptor were 17 nM and 242 nM, respectively.

On to `Fc1ccc(F)c(-c2noc(-c3nnn(-c4ccccc4F)c3C3CCOCC3)n2)c1` [Example 62], for which the results for the EC50 at S1P1 receptor and at S1P3 receptor were 46 nM and greater than 20000 nM, respectively.

Take `COCc1c(-c2nc(-c3cccc(S(C)(=O)=O)c3)no2)nnn1-c1ccccc1F` [Example 68, 5-[1-(2-fluorophenyl)-5-(methoxymethyl)-1H-1,2,3-triazol-4-yl]-3-[3-(methylsulfonyl)phenyl]-1,2,4-oxadiazole]: the EC50 at S1P1 receptor was 594 nM; on S1P3 receptor, greater than 20000 nM.

In the case of `COCCc1c(-c2nc(-c3ccccc3F)no2)nnn1-c1ccccc1F` [Example 49, 3-(2-fluorophenyl)-5-[1-(2-fluorophenyl)-5-(2-methoxyethyl)-1H-1,2,3-triazol-4-yl]-1,2,4-oxadiazole], the concentration for a half-maximal effect (EC50) at S1P1 receptor came out at 119 nM; on S1P3 receptor it was 13300 nM.

Turning to `Fc1cc(F)cc(-c2noc(-c3nnn(-c4ccccc4F)c3-c3ccncc3)n2)c1` [Example 102, 4-[4-[3-(3,5-difluorophenyl)-1,2,4-oxadiazol-5-yl]-1-(2-fluorophenyl)-1H-1,2,3-triazol-5-yl]pyridine], the EC50 on S1P1 receptor stood at 6 nM; on S1P3 receptor it was 149 nM.

Regarding `Fc1ccc(F)c(-c2noc(-c3nnn(-c4ccccc4F)c3-c3cccnc3)n2)c1` [Example 26, 3-[4-[3-(2,5-Difluorophenyl)-1,2,4-oxadiazole-5-yl]-1-(2-fluorophenyl)-1H-1,2,3-triazole-5-yl]pyridine], the EC50 is 95 nM on S1P1 receptor and greater than 20000 nM on S1P3 receptor.

Regarding `Fc1ccc(F)c(-c2noc(-c3nnn(-c4ccccc4F)c3CN3CCOCC3)n2)c1` [Example 39, 4-{[4-[3-(2,5-difluorophenyl)-1,2,4-oxadiazol-5-yl]-1-(2-fluorophenyl)-1H-1,2,3-triazol-5-yl]methyl}morpholine], the EC50 is 92 nM on S1P1 receptor and 741 nM on S1P3 receptor.

Consider `CCc1c(-c2nc(-c3ccccc3)no2)nnn1-c1ccccc1F` [Example 5, 5-[5-Ethyl-1-(2-fluorophenyl)-1H-1,2,3-triazole-4-yl]-3-phenyl-1,2,4-oxadiazole], for which the results for the EC50 at S1P1 receptor and at S1P3 receptor were 862 nM and greater than 30000 nM, respectively.

For the molecule `Fc1ccccc1-n1nnc(-c2nc(-c3cccc(F)c3F)no2)c1-c1ccncc1` [Example 101, 4-[4-[3-(2,3-difluorophenyl)-1,2,4-oxadiazol-5-yl]-1-(2-fluorophenyl)-1H-1,2,3-triazol-5-yl]pyridine], the values for the EC50 on S1P1 receptor and on S1P3 receptor were 9 nM and 214 nM, respectively.

`Fc1ccccc1-c1noc(-c2nnn(-c3ccccc3F)c2-c2ccccn2)n1` [Example 27, 2-{1-(2-Fluorophenyl)-4-[3-(2-fluorophenyl)-1,2,4-oxadiazole-5-yl]-1H-1,2,3-triazole-5-yl}pyridine]: the results for the EC50 at S1P1 receptor and at S1P3 receptor were 188 nM and 2890 nM, respectively.

Consider `O=C(O)CCNCc1ccc(-c2noc(-c3nnn(-c4ccccc4F)c3-c3ccncc3)n2)cc1` [Example 127, N-(4-{5-[1-(2-fluorophenyl)-5-pyridin-4-yl-1H-1,2,3-triazol-4-yl]-1,2,4-oxadiazol-3-yl}benzyl)-beta-alanine], for which the values for the EC50 at S1P1 receptor and on S1P3 receptor were 1 nM and 318 nM, respectively.
